The values below come from ChEMBL document CHEMBL3882247, “Use of dibenzofuranone derivatives to inhibit kinases” (2013).

pIC50: −log10 of the molar value. Active and inactive are the calls of the source. The calls are words filed in the database; no cut-off is given here.

The test system of experiment [1] is LNCaP. As to the kind of experiment: Cytotoxicity against human LNCAP cells assessed as cell viability at 50 uM after 48 hrs by MTT assay. The format is functional. For orientation: Tetrazolium dyes change colour on reduction, which living cells bring about.
Experiment [2] has as its system LNCaP. The experiment in a line: Cytotoxicity against human LNCAP cells assessed as cell viability at 25 uM after 48 hrs by MTT assay. The format is functional.
The test system of experiment [3] is LNCaP. The experiment in a line: Cytotoxicity against human LNCAP cells assessed as decrease in cell viability after 24 to 72 hrs by MTT assay. Format: functional, cell-based.
Experiment [4] relates to LNCaP. The experiment in a line: Cytotoxicity against human LNCAP cells assessed as cell viability at 50 uM after 24 hrs by MTT assay. Format: functional.
In experiment [5] the test system is LNCaP. As to the kind of experiment: Cytotoxicity against human LNCAP cells assessed as cell viability at 50 uM after 72 hrs by MTT assay. Format: functional.
Experiment [6] relates to LNCaP. As to the kind of experiment: Induction of apoptosis in human LNCAP cells assessed as PARP cleavage at 25 to 50 uM after 24 to 48 hrs by Western blot analysis. The format is functional, cell-based. (In western blotting, separated proteins are transferred to a membrane and probed.)
The test system of experiment [7] is LNCaP. As to the kind of experiment: Cytotoxicity against human LNCAP cells assessed as cell viability at 25 uM after 24 hrs by MTT assay. The format is functional.
The target of experiment [8] is T1, Casein kinase II (Homo sapiens) (UniProt P67870+P68400+P19784). As to the kind of experiment: Inhibition of CK2 (unknown origin) assessed as residual activity using E-peptide as substrate at 10 uM incubated for 10 mins prior to testing by capillary electrophoretic analysis. Format: protein-complex assay.
Experiment [9] concerns the target T1, Casein kinase II (Homo sapiens). The experiment in a line: Inhibition of CK2 in human LNCAP cell lysates after 24 to 48 hrs in presence of [gamma-32P]ATP by radiometric analysis. The format is cell-based.
Experiment [10] has as its system LNCaP. The experiment in a line: Induction of apoptosis in human LNCAP cells assessed as PARP cleavage after 24 to 48 hrs by Western blot analysis. Format: functional, cell-based.
The next experiment addresses Casein kinase 2 (Rattus norvegicus, UniProt P19139). As to the kind of experiment: Inhibition of rat liver CK2 using RRRADDSDDDDD as substrate after 10 mins in presence of [gamma-33P]-ATP.

Sequence of Casein kinase 2 (P67874 whole entry): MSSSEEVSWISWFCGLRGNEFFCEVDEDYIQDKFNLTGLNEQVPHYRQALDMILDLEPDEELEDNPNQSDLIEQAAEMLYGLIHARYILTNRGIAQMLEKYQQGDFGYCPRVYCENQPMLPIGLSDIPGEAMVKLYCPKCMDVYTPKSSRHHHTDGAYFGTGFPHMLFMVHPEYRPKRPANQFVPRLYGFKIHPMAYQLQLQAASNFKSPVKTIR
Sequence of Casein kinase 2 (P19139 whole entry): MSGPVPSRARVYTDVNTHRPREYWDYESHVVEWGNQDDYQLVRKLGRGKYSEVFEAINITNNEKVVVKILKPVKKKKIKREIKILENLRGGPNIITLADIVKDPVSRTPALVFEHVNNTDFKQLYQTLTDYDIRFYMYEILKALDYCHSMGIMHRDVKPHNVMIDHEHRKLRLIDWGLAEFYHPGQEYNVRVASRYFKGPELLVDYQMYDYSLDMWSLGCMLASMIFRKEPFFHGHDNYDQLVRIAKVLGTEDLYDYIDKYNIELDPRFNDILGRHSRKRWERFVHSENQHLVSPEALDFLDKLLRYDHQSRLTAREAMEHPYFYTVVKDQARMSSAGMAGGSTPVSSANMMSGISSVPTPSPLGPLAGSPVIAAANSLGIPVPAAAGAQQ

Consider `Brc1c(Br)c(Br)c2[nH]nnc2c1Br`, for which the result in the experiment with LNCaP [1], in the experiment on LNCaP [2], in the experiment with LNCaP [4], with LNCaP [5], in the experiment on LNCaP [6] and in the experiment on LNCaP [7] was Active. The Activity entry with LNCaP [3] is “Dose-dependent effect”.
Consider `CC(C)=CC(=O)c1oc2c(Cl)c(Cl)c(O)c(C#N)c2c1N`, for which the Activity in experiment [8] was below 4%.
As to `COc1ccc(N/C=C2\C(=O)CCc3c2oc2cc(Cl)c(O)c(Cl)c32)cc1`, the Activity result in the experiment on LNCaP [3] was “Dose-dependent effect”. Moreover, in [9], the inhibition entry was “Active”.
In the same order, the values of `COc1ccc(/N=C/c2c(O)ccc3c2oc2cc(Cl)c(O)c(Cl)c23)cc1` are “Dose-dependent effect” and “Active”.
As to `CC(=O)Oc1c(Cl)c(Cl)c2oc(C(=O)C=C(C)C)c(N)c2c1C#N`, in experiment [8], the Activity was determined as 7%.
Same read-out and setting: the same measure for `CCOC(=O)c1oc2c(Cl)c(Cl)c(OC(C)=O)c(C#N)c2c1N`: 31%.
Take `Cc1ccc(N/C=C2\C(=O)CCc3c2oc2c(Cl)c(Cl)c(O)cc32)cc1`: the figures for the Activity entry (in the experiment on LNCaP [3]; in the experiment with LNCaP [10]; in experiment [8]) were “Dose-dependent effect”, “Dose-dependent effect” and below 4%, respectively.
As a reminder, the pIC50 is the negative decadic logarithm of the IC50, by convention in mol/L. On to `O=c1oc2c(O)c(O)cc3c(=O)oc4c(O)c(O)cc1c4c23` [ELLAGIC ACID], for which the negative logarithm of the IC50 (pIC50) at Casein kinase 2 was 7.40.
